Experiment: wn = mass fraction of the nth substance listed
Details: 101 kPa, Liquid; for viscosity: Capillary tube (Ostwald / Ubbelohde) method; for mass density: Pycnometric method

O=[N+]([O-])[O-].[Li+] [lithium nitrate] + O
Details	mass density [kg/m3]	viscosity [mPa·s]
283.15 K, w1 = 0.3	1203	2.41
293.15 K, w1 = 0.3	1199	1.902
293.15 K, w1 = 0.35	1236	2.241
293.15 K, w1 = 0.4	1274	2.791
303.15 K, w1 = 0.3	1193	1.535
303.15 K, w1 = 0.35	1231	1.85
303.15 K, w1 = 0.4	1269	2.24
303.15 K, w1 = 0.45	1314	2.87
303.15 K, w1 = 0.5	1358	3.839
303.15 K, w1 = 0.55	1405	5.357
313.15 K, w1 = 0.3	1188	1.3
313.15 K, w1 = 0.35	1225	1.552
313.15 K, w1 = 0.4	1263	1.888
313.15 K, w1 = 0.45	1307	2.363
313.15 K, w1 = 0.5	1352	3.114
313.15 K, w1 = 0.55	1398	4.299
313.15 K, w1 = 0.6	1449	6.274
323.15 K, w1 = 0.3	1179	1.112
323.15 K, w1 = 0.35	1216	1.306
323.15 K, w1 = 0.4	1257	1.58
323.15 K, w1 = 0.45	1300	1.994
323.15 K, w1 = 0.5	1346	2.543
323.15 K, w1 = 0.55	1391	3.515
323.15 K, w1 = 0.6	1440	4.961
333.15 K, w1 = 0.3	1173	0.95
333.15 K, w1 = 0.35	1210	1.134
333.15 K, w1 = 0.4	1250	1.356
333.15 K, w1 = 0.45	1293	1.7
333.15 K, w1 = 0.5	1339	2.143
333.15 K, w1 = 0.55	1384	2.926
333.15 K, w1 = 0.6	1432	4.153
333.15 K, w1 = 0.65	1494	5.721
343.15 K, w1 = 0.3	1166	0.826
343.15 K, w1 = 0.35	1203	0.985
343.15 K, w1 = 0.4	1243	1.182
343.15 K, w1 = 0.45	1286	1.479
343.15 K, w1 = 0.5	1331	1.854
343.15 K, w1 = 0.55	1376	2.493
343.15 K, w1 = 0.6	1424	3.472
343.15 K, w1 = 0.65	1486	4.764
353.15 K, w1 = 0.3	1159	0.731
353.15 K, w1 = 0.35	1196	0.864
353.15 K, w1 = 0.4	1236	1.041
353.15 K, w1 = 0.45	1279	1.302
353.15 K, w1 = 0.5	1324	1.616
353.15 K, w1 = 0.55	1369	2.158
353.15 K, w1 = 0.6	1416	2.955
353.15 K, w1 = 0.65	1479	4.02
363.15 K, w1 = 0.3	1152	0.65
363.15 K, w1 = 0.35	1189	0.773
363.15 K, w1 = 0.4	1230	0.927
363.15 K, w1 = 0.45	1272	1.149
363.15 K, w1 = 0.5	1317	1.466
363.15 K, w1 = 0.55	1361	1.882
363.15 K, w1 = 0.6	1408	2.564
363.15 K, w1 = 0.65	1472	3.394
373.15 K, w1 = 0.3	1144	0.586
373.15 K, w1 = 0.35	1181	0.7
373.15 K, w1 = 0.4	1222	0.837
373.15 K, w1 = 0.45	1265	1.034
373.15 K, w1 = 0.5	1309	1.306
373.15 K, w1 = 0.55	1353	1.693
373.15 K, w1 = 0.6	1400	2.248
373.15 K, w1 = 0.65	1464	2.953
383.15 K, w1 = 0.4	1213	0.763
383.15 K, w1 = 0.45	1258	0.938
383.15 K, w1 = 0.5	1301	1.175
383.15 K, w1 = 0.55	1346	1.505
383.15 K, w1 = 0.6	1393	1.993
383.15 K, w1 = 0.65	1456	2.615
393.15 K, w1 = 0.5	1294	–
393.15 K, w1 = 0.55	1338	1.371
393.15 K, w1 = 0.6	1385	1.785
393.15 K, w1 = 0.65	1448	2.307
403.15 K, w1 = 0.6	1377	1.625
403.15 K, w1 = 0.65	1440	2.095
413.15 K, w1 = 0.65	1430	1.923

From the NIST ThermoML archive (doi:10.1021/je301084m)
